# From patent US10513547B2, “Peptides and combination of peptides and scaffolds thereof for use in immunotherapy against colorectal carcinoma (CRC) and other cancers” (Immatics Biotechnologies GmbH, priority 2015, dated 2019)
# How the values were obtained:
# CD8+ T-cells = test: In vitro T-cell priming assay with aAPCs loaded with peptide/MHC and anti-CD28, pMHC multimer readout; assay type: cell-based, human; settings: HLA-A*02 restricted peptides; positive wells among evaluable
# Text: In order to obtain information regarding the immunogenicity of the TUMAPs of the present invention, the inventors performed investigations using an in vitro T-cell priming assay based on repeated stimulations of CD8+ T-cells with artificial antigen presenting cells (aAPCs) loaded with peptide/MHC complexes and anti-CD28 antibody.
# In order to perform in vitro stimulations by artificial antigen presenting cells loaded with peptide-MHC complex (pMHC) and anti-CD28 antibody, the inventors first isolated CD8+ T-cells from fresh HLA-A*02 leukapheresis products via positive selection using CD8 microbeads (Miltenyi Biotec, Bergisch-Gladbach, Germany) of healthy donors obtained from the University clinics Mannheim, Germany, after informed consent.
# PBMCs and isolated CD8+ lymphocytes were incubated in T-cell medium (TCM) until use consisting of RPMI-Glutamax (Invitrogen, Karlsruhe, Germany) supplemented with 10% heat inactivated human AB serum (PAN-Biotech, Aidenbach, Germany), 100 U/ml Penicillin/100 μg/ml Streptomycin (Cambrex, Cologne, Germany), 1 mM sodium pyruvate (CC Pro, Oberdorla, Germany), 20 μg/ml Gentamycin (Cambrex). 2.5 ng/ml IL-7 (PromoCell, Heidelberg, Germany) and 10 U/ml IL-2 (Novartis Pharma, Nürnberg, Germany) were also added to the TCM at this step.
# Generation of pMHC/anti-CD28 coated beads, T-cell stimulations and readout was performed in a highly defined in vitro system using four different pMHC molecules per stimulation condition and 8 different pMHC molecules per readout condition.
# The purified co-stimulatory mouse IgG2a anti human CD28 Ab 9.3 (Jung et al., 1987) was chemically biotinylated using Sulfo-N-hydroxysuccinimidobiotin as recommended by the manufacturer (Perbio, Bonn, Germany). Beads used were 5.6 μm diameter streptavidin coated polystyrene particles (Bangs Laboratories, Illinois, USA).
# 800.000 beads/200 μl were coated in 96-well plates in the presence of 4×12.5 ng different biotin-pMHC, washed and 600 ng biotin anti-CD28 were added subsequently in a volume of 200 μl. Stimulations were initiated in 96-well plates by co-incubating 1×10^6 CD8+ T-cells with 2×10^5 washed coated beads in 200 μl TCM supplemented with 5 ng/ml IL-12 (PromoCell) for 3 days at 37° C. Half of the medium was then exchanged by fresh TCM supplemented with 80 U/ml IL-2 and incubating was continued for 4 days at 37° C. This stimulation cycle was performed for a total of three times. For the pMHC multimer readout using 8 different pMHC molecules per condition, a two-dimensional combinatorial coding approach was used as previously described (Andersen et al., 2012) with minor modifications encompassing coupling to 5 different fluorochromes. Finally, multimeric analyses were performed by staining the cells with Live/dead near IR dye (Invitrogen, Karlsruhe, Germany), CD8-FITC antibody clone SK1 (BD, Heidelberg, Germany) and fluorescent pMHC multimers. For analysis, a BD LSRII SORP cytometer equipped with appropriate lasers and filters was used. Peptide specific cells were calculated as percentage of total CD8+ cells. Evaluation of multimeric analysis was done using the FlowJo software (Tree Star, Oreg., USA). In vitro priming of specific multimer+ CD8+ lymphocytes was detected by comparing to negative control stimulations.
# HLA-A*02:01 = HLA-A*02:01 (Homo sapiens, UniProt P04439, D140Y/D185E/D98H/E176V/E277Q/G131W/G231S/I119V/I121R/I166T/I218V/L300P/L318F/N151K/N90K/P208A/P217A/Q86G/Q94H/R138H/R169H/T345S); test: MHC binding assay (UV-ligand exchange, beta2m ELISA, peptide exchange yield); settings: binding to HLA-A*02:01
# Outline: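 Peptide–HLA-A*02:01 complexes formed by UV-ligand exchange, in which a UV-cleavable peptide is replaced by the test peptide. Exchange products, diluted 100-fold, were captured on streptavidin plates and detected with HRP anti-β2m ELISA at 450 nm. Yield was quantified against refolded monomer standards at 15-500 ng/ml.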
Substance,Wells positive [%] (CD8+ T-cells),"Peptide exchange (MHC class I binding score, peptide exchange yield) (HLA-A*02:01)"
13 (FLLAEDTKV; listed as Homo sapiens) [compound 13],“++” (20%-49% = ++),“+++” (≥50 = +++)
2 (ALLPRYFFL; listed as Homo sapiens) [compound 2],“++++” (> = 70% = ++++),“++” (≥20% = ++)
5 (WLFDDGGLTL; listed as Homo sapiens) [compound 5],“++” (20%-49% = ++),“++++” (≥75% = ++++)
150 (RLADLEALKV; listed as Homo sapiens) [compound 150],“++″ (20%-49% = ++),“+++” (≥50 = +++)
141 (AVIEHLERL; listed as Homo sapiens) [compound 141],“+” (<20% = +),“++++” (≥75% = ++++)
142 (SLVQRVETI; listed as Homo sapiens) [compound 142],“+” (<20% = +),“+++” (≥50 = +++)
133 (RTFEKIEEV; listed as Homo sapiens) [compound 133],“+” (<20% = +),“++” (≥20% = ++)
7 (YLTRHLAVL; listed as Homo sapiens) [compound 7],“+” (<20% = +),“++” (≥20% = ++)
127 (RLAELTVDEFLA; listed as Homo sapiens) [compound 127],“+” (<20% = +),“+++” (≥50 = +++)
64 (KTLGKLWRL; listed as Homo sapiens) [compound 64],“++++” (> = 70% = ++++),“++” (≥20% = ++)
47 (KLYERCEVV; listed as Homo sapiens) [compound 47],“+” (<20% = +),“++” (≥20% = ++)
12 (ALVQGILERV; listed as Homo sapiens) [compound 12],“++++” (> = 70% = ++++),“+++” (≥50 = +++)
10 (RMYNKIFAI; listed as Homo sapiens) [compound 10],“++++” (> = 70% = ++++),“+++” (≥50 = +++)
132 (ALLNAILHSA; listed as Homo sapiens) [compound 132],“+” (<20% = +),“+++” (≥50 = +++)
136 (KLFDIFSQQV; listed as Homo sapiens) [compound 136],“++” (20%-49% = ++),“+++” (≥50 = +++)
22 (GLIDEVMVL; listed as Homo sapiens) [compound 22],“++” (20%-49% = ++),“+++” (≥50 = +++)
31 (LLYGKYVSV; listed as Homo sapiens) [compound 31],“++” (20%-49% = ++),“+++” (≥50 = +++)
9 (ILDDHLSRV; listed as Homo sapiens) [compound 9],“+” (<20% = +),“++” (≥20% = ++)
21 (VLIDHRWVL; listed as Homo sapiens) [compound 21],“+” (<20% = +),“+++” (≥50 = +++)
32 (KLNTETFGV; listed as Homo sapiens) [compound 32],“++” (20%-49% = ++),“++” (≥20% = ++)
1 (ALIKQLFEA; listed as Homo sapiens) [compound 1],″+” (<20% = +),″+++” (≥50 = +++)
123 (KTLERSYLL; listed as Homo sapiens) [compound 123],“+” (<20% = +),“++” (≥20% = ++)
